From ChEMBL document CHEMBL1201862, “PubChem BioAssay data set” (2004)
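48-hour exposure; five concentrations; linearly interpolated endpoints. Here, GI50 denotes the concentration required for 50% inhibition of growth.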 Active and inactive are the calls of the source. Cut-off read from the data, not from the text of the source: active = GI50 up to about 1.1 µM and inactive = higher.

Columns and labels:
Test in all cases: inhibition of tumour cell growth, NCI panel, 48 h
A549 = system: A549
BT-549 = system: BT-549
HCT-116 = system: HCT-116
HT-29 = system: HT-29
K562 = system: K562
M14 = system: M14
MDA-N = system: MDA-N
NCI-H460 = system: NCI-H460
NCI/ADR-RES = system: NCI/ADR-RES
OVCAR-4 = system: OVCAR-4
OVCAR-8 = system: OVCAR-8
SF-268 = system: SF-268
SK-MEL-2 = system: SK-MEL-2
SK-MEL-5 = system: SK-MEL-5
SK-OV-3 = system: SK-OV-3
SNB-75 = system: SNB-75
UACC-257 = system: UACC-257
UO-31 = system: UO-31
MOLT-4 = system: MOLT-4

SMILES	GI50 (A549)	GI50 (BT-549)	GI50 (HCT-116)	GI50 (HT-29)	GI50 (K562)	GI50 (M14)	GI50 (MDA-N)	GI50 (NCI-H460)	GI50 (NCI/ADR-RES)	GI50 (OVCAR-4)	GI50 (OVCAR-8)	GI50 (SF-268)	GI50 (SK-MEL-2)	GI50 (SK-MEL-5)	GI50 (SK-OV-3)	GI50 (SNB-75)	GI50 (UACC-257)	GI50 (UO-31)	GI50 (MOLT-4)
O=C(SCc1cccc2ccccc12)c1ccc(Cl)cc1	> 100 µM (inactive)	> 100 µM (inactive)	66.1 µM (inactive)	54.2 µM (inactive)	48.4 µM (inactive)	> 100 µM (inactive)	> 100 µM (inactive)	49 µM (inactive)	> 100 µM (inactive)	> 100 µM (inactive)	> 100 µM (inactive)	80.4 µM (inactive)	> 100 µM (inactive)	45.2 µM (inactive)	> 100 µM (inactive)	> 100 µM (inactive)	76.7 µM (inactive)	> 100 µM (inactive)	
Cc1ccc(CCCC(=O)O)cc1C	> 100 µM (inactive)	> 100 µM (inactive)	> 100 µM (inactive)	> 100 µM (inactive)	> 100 µM (inactive)	> 100 µM (inactive)	> 100 µM (inactive)	> 100 µM (inactive)	> 100 µM (inactive)	> 100 µM (inactive)	> 100 µM (inactive)	63.7 µM (inactive)	> 100 µM (inactive)	> 100 µM (inactive)		39.1 µM (inactive)	> 100 µM (inactive)	> 100 µM (inactive)	> 100 µM (inactive)
O=c1c2cccnc2[s+]([O-])n1Cc1ccccc1 (stereo not given)	> 100 µM (inactive)	> 100 µM (inactive)	> 100 µM (inactive)	> 100 µM (inactive)	> 100 µM (inactive)	> 100 µM (inactive)	> 100 µM (inactive)	> 100 µM (inactive)	> 100 µM (inactive)	> 100 µM (inactive)	> 100 µM (inactive)	> 100 µM (inactive)		> 100 µM (inactive)	> 100 µM (inactive)	> 100 µM (inactive)	> 100 µM (inactive)	> 100 µM (inactive)	> 100 µM (inactive)
O=C(C(=C(I)I)c1ccccc1)c1ccccc1	36.9 µM (inactive)	55.7 µM (inactive)	17.1 µM (inactive)	33.6 µM (inactive)	4.7 µM (inactive)	25 µM (inactive)	19.1 µM (inactive)	27.5 µM (inactive)	28.6 µM (inactive)	39.9 µM (inactive)	37.2 µM (inactive)	22.6 µM (inactive)	16.1 µM (inactive)	16.8 µM (inactive)	59.6 µM (inactive)		37.4 µM (inactive)	20.8 µM (inactive)	19.8 µM (inactive)
CCCCNc1nc(N)nc(Nc2ccc(Br)cc2)c1N=O	33.7 µM (inactive)	44.7 µM (inactive)	84.9 µM (inactive)	86.5 µM (inactive)	38.9 µM (inactive)	> 100 µM (inactive)	> 100 µM (inactive)	70 µM (inactive)	39.4 µM (inactive)		70.5 µM (inactive)	> 100 µM (inactive)	> 100 µM (inactive)	> 100 µM (inactive)		52.2 µM (inactive)	> 100 µM (inactive)	28.1 µM (inactive)	18.8 µM (inactive)
N=C(N)NC(=N)Nc1c(F)c(F)c(F)c(F)c1F	> 100 µM (inactive)	92.3 µM (inactive)	70.5 µM (inactive)	96.8 µM (inactive)	41.5 µM (inactive)	21.1 µM (inactive)	69.7 µM (inactive)	90.4 µM (inactive)	> 100 µM (inactive)	> 100 µM (inactive)	> 100 µM (inactive)	> 100 µM (inactive)	> 100 µM (inactive)	44.8 µM (inactive)	> 100 µM (inactive)	> 100 µM (inactive)	23.6 µM (inactive)	> 100 µM (inactive)	
COc1cc(Nc2nc3ccccc3nc2C(=O)O)cc(OC)c1OC	> 100 µM (inactive)	89.9 µM (inactive)	> 100 µM (inactive)		> 100 µM (inactive)	73.6 µM (inactive)	> 100 µM (inactive)	65.3 µM (inactive)	23 µM (inactive)		> 100 µM (inactive)	28.3 µM (inactive)		49.2 µM (inactive)	59.2 µM (inactive)	47.2 µM (inactive)	87.3 µM (inactive)	21.6 µM (inactive)	> 100 µM (inactive)
CC[C@@]1(O)C(=O)OCc2c1cc1n(c2=O)Cc2c-1nc1ccccc1c2/C=N\NC(=O)C(C)N (stereo not given in full)	0.405 µM (active)	0.303 µM (active)	0.186 µM (active)	1.63 µM (inactive)		0.254 µM (active)	1.34 µM (inactive)	< 0.0243 µM (active)	0.241 µM (active)	7.1 µM (inactive)	0.0923 µM (active)	< 0.017 µM (active)	13.1 µM (inactive)	0.238 µM (active)		< 0.0298 µM (active)	1.37 µM (inactive)	0.182 µM (active)	< 0.0158 µM (active)
